# Laboratory results published in article PMC3118614 (Biomedical chromatography : BMC, 2010).
# Where two headings read alike, the source gives them in different places.
# Columns and labels:
# [1] = ref Rowland et al., 2007; cited from earlier work
# [2] = assay type: in vivo, olive baboons (Papio Anubis)
"Cmax (maximum concentration) ([2]; in vivo, po, 5 mg/kg)","Cmax (maximum concentration) ([2]; in vivo, po, 10 mg/kg)","Cmax (maximum concentration) ([2]; in vivo, po, 400 mg)","Cmax (maximum concentration) ([2]; in vivo, po, 800 mg)","Cmax (maximum concentration) ([2]; baboon serum, single oral dose of NVP 5 mg/kg, solution formulation, n = 2, mean)","ratio of the plasma level of 12-OHNVP and 4-CANVP ([2]; in vivo, 5 mg/kg)","ratio of the plasma level of 12-OHNVP and 4-CANVP ([2]; in vivo, 10 mg/kg)",SMILES,"metabolites detected in human plasma (metabolic profile, in words) [1]"
–,–,–,–,–,–,–,"Cc1cc(=O)[nH]c2c1NC(=O)c1cccnc1N2C1CC1 [2-OHNVP, 2-hydroxynevirapine]",major metabolites
11.50 ± 3.63 ng/mL,19.69 ± 9.94 ng/mL,16.53 ± 1.10 ng/mL,72.85 ± 60.37 ng/mL,–,–,–,Cc1c(O)cnc2c1NC(=O)c1cccnc1N2C1CC1 [3-OHNVP],major metabolites
–,–,–,–,144.90 ± 22.31 ng/mL,–,–,"O=C1Nc2c(C(=O)O)ccnc2N(C2CC2)c2ncccc21 [4-CANVP, nevirapine 4-carboxylic acid]",–
–,–,–,–,–,–,–,Cc1ccnc2c1NC(=O)c1cc(O)cnc1N2C1CC1 [8-OHNVP],low plasma level
31.38 ± 10.59 ng/mL,275.25 ± 126.07 ng/mL,157.16 ± 7.06 ng/mL,385.38 ± 346.21 ng/mL,–,0.21,1.3,O=C1Nc2c(CO)ccnc2N(C2CC2)c2ncccc21 [12-OHNVP],major metabolites
